Data reported in patent US3962445A, “Anti-allergenic carbostyril derivatives” (Beecham Group Limited, priority 1973, dated 1976).

System: PCA response
Experiment: rat Passive Cutaneous Anaphylaxis Test (PCA test)
Assay type: in vivo, rat (male Wistar)
Settings: subcutaneous, as sodium salt
Protocol: Some of the 4-hydroxycarbostyrils prepared in the preceding examples were tested in the rat Passive Cutaneous Anaphylaxis Test (PCA test), described below. They were administered as their sodium salts either in pH 7.2 phosphate buffer (for soluble salts) or as a suspension in 1% methyl cellulose (for insoluble salts).
Male Wistar rats of 250-300g, were injected intraperitoneally with 0.5 ml. of Bordatella pertussis vaccine (containing 4 × 10^10 dead organism per ml) and subcutaneously with 0.5 ml. of an emulsion of 100 mg. of ovalbumin in 2 ml of saline and 3 ml. of incomplete Freunds' adjuvant. Rats were bled by cardiac puncture on day 18, the blood was pooled and separated and serum stored at -20° and thawed only once before use.
0.1 ml of each of six twofold serial dilutions of the serum in 0.9% saline were injected intradermally into separate sites on the shaved dorsal surface of 250-350 g. Male Wistar rats. 72 hours later the animals were challenged by i v injection of 0.3 ml. of 1% ovalbumin mixed with 0.1 ml of a 5% solution of pontamine sky blue dye both in isotonic saline buffered with pH. 7.2 Sorenson buffer (P P S ) The rats were killed after 20 minutes and the diameter of the blue wheals at the antibody injection sites were measured. The starting dilution of the serum was adjusted so that there was no response after challenge, at the site of injection of the highest dilution and a maximum response at the two or three lowest dilutions. Typically, six twofold serial dilutions of the serum 1/4 to […] were used.
Amounts of the compounds were administered to rats by subcutaneous injection, into the nucal region, of a solution of the compound in P.B.S. or as a suspension in 1% methyl cellulose, each amount to a test group of six animals at a specified time prior to intravenous challenge with ovalbumin.
% Inhibition of P.C.A = 100 (1 - a/b)
For those compounds having insoluble sodium salts, the salts were isolated by reaction of the free nitro compound with 2.5N sodium hydroxide and the filtered sodium salt washed free of alkali with water. The dried salts were then administered as a suspension in 1% methyl cellulose.

[1] = 0 h, time 0 mins. prior to i.v. ovalbumin challenge
[2] = 0.5 h, time 30 mins. prior to i.v. ovalbumin challenge
[3] = 1 h, time 60 mins. prior to i.v. ovalbumin challenge

SMILES | inhibition at 25 mg/kg [1] | inhibition at 100 mg/kg [1] | inhibition at 25 mg/kg [2] | inhibition at 100 mg/kg [2] | inhibition at 25 mg/kg [3] | inhibition at 100 mg/kg [3]
Cc1cc2c(O)c([N+](=O)[O-])c(=O)n(C)c2cc1C [Example 38, 4-Hydroxy-3-nitro-1,6,7-trimethylcarbostyril] | 13% | 53% | 14% | 47% | – | –
O=c1[nH]c2c(Br)cccc2c(O)c1[N+](=O)[O-] [Example 13, 8-Bromo-4-hydroxy-3-nitrocarbostyril] | 36% | 49% | – | – | 32% | 32%
Cn1c(=O)c([N+](=O)[O-])c(O)c2ccccc21 [Example 31, 4-Hydroxy-1-methyl-3-nitro carbostyril] | 21% | 35% | 26% | 36% | – | –
Cc1cc(C)c2c(O)c([N+](=O)[O-])c(=O)[nH]c2c1 [Example 10, 5,7-Dimethyl-4-hydroxy-3-nitrocarbostyril] | 0% | 22% | – | – | 35% | 44%
O=c1[nH]c2ccc(Cl)cc2c(O)c1[N+](=O)[O-] [Example 3, 6-Chloro-4-hydroxy-3-nitrocarbostyril] | -39% | -30% | – | – | 33% | 54%
O=c1[nH]c2cc(Cl)ccc2c(O)c1[N+](=O)[O-] [Example 16, 7-Chloro-4-hydroxy-3-nitrocarbostyril] | -3% | 13% | 9% | 63% | – | –
O=c1[nH]c2ccc([N+](=O)[O-])cc2c(O)c1[N+](=O)[O-] [Example 2, 3,6-Dinitro-4-hydroxycarbostyril] | 4% | -14% | – | – | 31% | 23%
Cc1cccc2[nH]c(=O)c([N+](=O)[O-])c(O)c12 [Example 6 (a), 4-Hydroxy-5-methyl-3-nitrocarbostyril] | 5% | 7% | – | – | 1% | 51%
CCn1c(=O)c([N+](=O)[O-])c(O)c2ccccc21 [Example 30, 1-Ethyl-4-hydroxy-3-nitro carbostyril] | 9% | 20% | 34% | 41% | – | –
Cc1ccc2c(O)c([N+](=O)[O-])c(=O)[nH]c2c1 [Example 6 (b), 4-hydroxy-7-methyl-3-nitrocarbostyril] | 12% | 7% | – | – | 1% | 23%
Cc1cc2[nH]c(=O)c([N+](=O)[O-])c(O)c2cc1C [Example 15, 6,7-Dimethyl-4-hydroxy-3-nitrocarbostyril] | 62% | 88% | – | – | 27% | 54%
Cc1cc(C)c2[nH]c(=O)c([N+](=O)[O-])c(O)c2c1 [Example 11, 6,8-Dimethyl-4-hydroxy-3-nitrocarbostyril] | 11% | 0% | – | – | 52% | 51%
O=c1c([N+](=O)[O-])c(O)c2ccccc2n1-c1ccccc1 [Example 37, 4-Hydroxy-3-nitro-1-phenylcarbostyril] | -2% | 13% | 1% | 42% | – | –
CCn1c(=O)c([N+](=O)[O-])c(O)c2cc(Cl)ccc21 [Example 35, 6-Chloro-1-ethyl-4-hydroxy-3-nitro carbostyril] | -8% | 5% | – | – | 11% | 88%
CCn1c(=O)c([N+](=O)[O-])c(O)c2cc(C)ccc21 [Example 33, 1-Ethyl-4-hydroxy-6-methyl-3-nitro carbostyril] | -12% | -1% | – | – | -5% | 16%
Cc1cccc2c(O)c([N+](=O)[O-])c(=O)[nH]c12 [Example 7, 4-Hydroxy-8-methyl-3-nitrocarbostyril] | 23% | 71% | 18% | 36% | – | –
Cc1ccc2[nH]c(=O)c([N+](=O)[O-])c(O)c2c1 [Example 4, 4-Hydroxy-6-methyl-3-nitrocarbostyril] | 14% | 30% | – | – | 15% | 23%
O=c1[nH]c2c(Cl)cccc2c(O)c1[N+](=O)[O-] [Example 14, 8-Chloro-4-hydroxy-3-nitrocarbostyril] | 18% | 26% | – | – | 42% | 43%
Cc1ccc2c(c1)c(O)c([N+](=O)[O-])c(=O)n2C [Example 32, 1,6-Dimethyl-4-hydroxy-3-nitro carbostyril] | -12% | 16% | 55% | 26% | – | –
CCc1cc2[nH]c(=O)c([N+](=O)[O-])c(O)c2cc1CC [Example 17, 6,7-Diethyl-4-hydroxy-3-nitrocarbostyril] | 25% | 32% | – | – | 34% | 42%
O=c1[nH]c2ccccc2c(O)c1[N+](=O)[O-] [Example 1, 4-Hydroxy-3-nitrocarbostyril] | 9% | 33% | 19% | 40% | – | –
CCc1ccc2[nH]c(=O)c([N+](=O)[O-])c(O)c2c1 [Example 5, 6-Ethyl-4-hydroxy-3-nitro-carbostyril] | 19% | 26% | – | – | 13% | 33%
Cn1c(=O)c([N+](=O)[O-])c(O)c2ccc(Cl)cc21 [Example 36, 7-Chloro-4-hydroxy-1-methyl-3-nitro carbostyril] | -4% | 34% | – | – | -2% | 50%
Cn1c(=O)c([N+](=O)[O-])c(O)c2cc(Cl)ccc21 [Example 34, 6-Chloro-4-hydroxy-1-methyl-3-nitro carbostyril] | -5% | 43% | – | – | 8% | 61%
Cc1ccc(C)c2c(O)c([N+](=O)[O-])c(=O)[nH]c12 [Example 9, 5,8-Dimethyl-4-hydroxy-3-nitrocarbostyril] | 7% | 22% | 9% | 27% | – | –
Cc1ccc2c(O)c([N+](=O)[O-])c(=O)[nH]c2c1C [Example 12, 7,8-Dimethyl-4-hydroxy-3-nitrocarbostyril] | 9% | 50% | 36% | 47% | – | –
O=c1[nH]c2ccc(Br)cc2c(O)c1[N+](=O)[O-] [Example 8, 6-Bromo-4-hydroxy-3-nitrocarbostyril] | 5% | -11% | – | – | 25% | 19%
